Assay [1] relates to PCB490-4 (human epithelioid sarcoma primary culture). As to the method: (§1)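 Roche open-access kinase inhibitor screen (223 compounds) on human epithelioid sarcoma primary cultures from three spatially distinct regions of tumor PCB490. 384-well plates, 72 h, CellTiter-Glo viability; IC50 by Hill curve fit. 100000 nM = no IC50 reached. Compound ids carry a plate-well prefix, which is stripped.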
Assay [2] has as its system PCB490-3 (human epithelioid sarcoma primary culture). As to the method: as §1
The subject of assay [3] is PCB490-5 (human epithelioid sarcoma primary culture). As to the method: as §1

As for `COc1cc[nH]c1/C=C1\C(=O)Nc2ccc([N+](=O)[O-])c(N3CC[C@@H](O)C3)c21`, the IC50 cell viability in assay [1] was 7.83 µM; in assay [2] it was 4.87 µM; in assay [3], 4.71 µM.
For `O=C1NC(=NCc2cccs2)SC1Cc1ccc2ncccc2c1` (stereo not drawn), the IC50 cell viability in assay [1], in assay [2] and in assay [3] was > 100 µM each time.
As for `COc1ccccc1CCN=C1NC(=O)/C(=C/c2ccc3ncccc3c2)S1`, the IC50 cell viability in assay [1], in assay [2] and in assay [3] was > 100 µM in each case.
As to `Nc1c(C(=O)c2cccc(C(O)CO)c2)cnn1-c1ccc(F)cc1` (stereo not drawn), the IC50 cell viability in assay [1], in assay [2] and in assay [3] was > 100 µM throughout.
Consider `Cn1c(=O)c(Oc2ccccc2F)cc2cnc(NC3CCOCC3)nc21`, for which the IC50 cell viability in assay [1], in assay [2] and in assay [3] was > 100 µM in each case.
In the case of `Cn1cc(C2=C(c3cn(C)c4c(N)cccc34)C(=O)NC2=O)c2ccccc21`, the IC50 cell viability in assay [1], in assay [2] and in assay [3] was > 100 µM in each case.
With `COc1ccc2c(c1)C(c1ccccc1Cl)=Nc1c(n[nH]c1C)N2`, the IC50 cell viability in assay [1], in assay [2] and in assay [3] was > 100 µM in each case.
On to `COc1cccc(C2=C(c3c(C)n(C)c4ccccc34)C(=O)NC2=O)c1`, for which the IC50 cell viability in assay [1], in assay [2] and in assay [3] was > 100 µM throughout.
Turning to `CC(C)Nc1ncc2cc(Oc3ccc(F)cc3F)c(=O)n(C)c2n1`, the IC50 cell viability in assay [1], in assay [2] and in assay [3] was > 100 µM throughout.
As for `CO/N=C(\c1ccccc1)c1cnn(-c2ccccc2)c1N`, the IC50 cell viability in assay [1], in assay [2] and in assay [3] was > 100 µM each time.
Regarding `Cn1cc(C2=C(c3cccc4ccccc34)C(=O)NC2=O)c2ccccc21`, the IC50 cell viability in assay [1], in assay [2] and in assay [3] was > 100 µM in each case.
In the case of `N#Cc1c(C(=O)c2ccccc2)cnn1-c1ccccc1`, the IC50 cell viability in assay [1], in assay [2] and in assay [3] was > 100 µM in each case.
`O=C1NC(=NCc2ccccn2)S/C1=C\c1ccc2ncccc2c1`: the IC50 cell viability in assay [1], in assay [2] and in assay [3] was > 100 µM each time.
As to `CN1C[C@@H]2Cn3c(c(C4=C(c5cn(C)c6ccccc56)C(=O)NC4=O)c4ccccc43)C[C@H]2C1`, the IC50 cell viability in assay [1], in assay [2] and in assay [3] was > 100 µM throughout.
Regarding `O=C1NC(=NCCc2ccccc2Cl)S/C1=C\c1ccc2ncccc2c1`, the IC50 cell viability in assay [1], in assay [2] and in assay [3] was > 100 µM throughout.
Turning to `O=C1NC(=O)C(c2c[nH]c3ccccc23)=C1c1ccccc1`, the IC50 cell viability in assay [1], in assay [2] and in assay [3] was > 100 µM throughout.
With `Cn1cc(C2=C(c3cn(C)c4ncccc34)C(=O)NC2=O)c2ccccc21`, the IC50 cell viability in assay [1], in assay [2] and in assay [3] was > 100 µM in each case.
`Cn1cc(C2=C(c3c4n(c5ccccc35)CCCC4)C(=O)NC2=O)c2ccccc21`: the IC50 cell viability in assay [1], in assay [2] and in assay [3] was > 100 µM in each case.
Turning to `Cn1cc(C2=C(c3cn(C)c4cc(C(N)=O)ccc34)C(=O)NC2=O)c2ccccc21`, the IC50 cell viability in assay [1], in assay [2] and in assay [3] was > 100 µM each time.
On to `CC(=O)N1CCC(Nc2ncc3cc(Oc4ccc(F)cc4F)c(=O)n(C)c3n2)CC1`, for which the IC50 cell viability in assay [1], in assay [2] and in assay [3] was > 100 µM in each case.
In the case of `O=C1NC(=NCCc2ccc(Br)cc2)S/C1=C\c1ccc2ncccc2c1`, the IC50 cell viability in assay [1], in assay [2] and in assay [3] was > 100 µM in each case.
In the case of `Cc1c(C2=C(c3cn(C)c4ccccc34)C(=O)NC2=O)c2ccccc2n1C`, the IC50 cell viability in assay [1], in assay [2] and in assay [3] was > 100 µM throughout.
Turning to `OCCn1c(-c2ccncc2)c(-c2ccc(F)cc2)c2ncccc21`, the IC50 cell viability in assay [1], in assay [2] and in assay [3] was > 100 µM each time.
Regarding `Cn1c(=O)c(Cc2ccccc2F)cc2cnc(NC3CCOCC3)nc21`, the IC50 cell viability in assay [1], in assay [2] and in assay [3] was > 100 µM in each case.
Turning to `Cn1cc(C2=C(c3cn(C)c4cc(C(=O)O)ccc34)C(=O)NC2=O)c2ccccc21`, the IC50 cell viability in assay [1], in assay [2] and in assay [3] was > 100 µM throughout.
Consider `O=c1c(Oc2ccc(F)cc2F)cc2cnc(NC3CCOCC3)nc2n1C1CC1`, for which the IC50 cell viability in assay [1], in assay [2] and in assay [3] was > 100 µM throughout.
`Fc1ccc(-c2c(-c3ccncc3)n(CCN3CCOCC3)c3cccnc23)cc1`: the IC50 cell viability in assay [1], in assay [2] and in assay [3] was > 100 µM in each case.
Take `N#CCn1c(=O)c(Oc2ccc(F)cc2F)cc2cnc(NC3CCOCC3)nc21`: the IC50 cell viability in assay [1], in assay [2] and in assay [3] was > 100 µM each time.
As for `O=C1NC(=NCCc2ccc(F)cc2)S/C1=C\c1ccc2ncccc2c1`, the IC50 cell viability in assay [1], in assay [2] and in assay [3] was > 100 µM in each case.
For `Cn1cc(C2=C(c3ccc(N)cc3)C(=O)NC2=O)c2ccccc21`, the IC50 cell viability in assay [1], in assay [2] and in assay [3] was > 100 µM throughout.
For the compound `Nc1c(C(=O)c2cccc(CCS(N)(=O)=O)c2)cnn1-c1ccc(F)cc1`, the IC50 cell viability in assay [1], in assay [2] and in assay [3] was > 100 µM in each case.
As for `COc1ccc(C2=C(c3cn(C)c4ccccc34)C(=O)NC2=O)cc1`, the IC50 cell viability in assay [1], in assay [2] and in assay [3] was > 100 µM in each case.
Consider `COc1cccc(C2=C(c3cn(C)c4c(C)cccc34)C(=O)NC2=O)c1`, for which the IC50 cell viability in assay [1], in assay [2] and in assay [3] was > 100 µM throughout.
On to `COc1cccc(C2=C(c3cn(C)c4ccccc34)C(=O)NC2=O)c1`, for which the IC50 cell viability in assay [1], in assay [2] and in assay [3] was > 100 µM in each case.
Turning to `Cn1cc(C2=C(c3cn(CCCN)c4ccccc34)C(=O)NC2=O)c2ccccc21`, the IC50 cell viability in assay [1], in assay [2] and in assay [3] was > 100 µM throughout.
As to `Nc1c(C(=O)c2cccc(CCC3(O)CCCC3)c2)cnn1-c1ccc(F)cc1`, the IC50 cell viability in assay [1], in assay [2] and in assay [3] was > 100 µM throughout.

(Values after the supplement of paper PMC6580486.)
